Counter-ions that a name gives are not always drawn.

A word on the IC50: it is the concentration needed to halve the response being measured.

The target of this assay is T1, glycine transporter-1 (GlyT-1) (Homo sapiens, UniProt P48067).
T1 construct: JAR cells (ATCC#HTB-144), which endogenously express GlyT-1; host or cells: JAR human choriocarcinoma cells
T1 sequence (P48067 1-706): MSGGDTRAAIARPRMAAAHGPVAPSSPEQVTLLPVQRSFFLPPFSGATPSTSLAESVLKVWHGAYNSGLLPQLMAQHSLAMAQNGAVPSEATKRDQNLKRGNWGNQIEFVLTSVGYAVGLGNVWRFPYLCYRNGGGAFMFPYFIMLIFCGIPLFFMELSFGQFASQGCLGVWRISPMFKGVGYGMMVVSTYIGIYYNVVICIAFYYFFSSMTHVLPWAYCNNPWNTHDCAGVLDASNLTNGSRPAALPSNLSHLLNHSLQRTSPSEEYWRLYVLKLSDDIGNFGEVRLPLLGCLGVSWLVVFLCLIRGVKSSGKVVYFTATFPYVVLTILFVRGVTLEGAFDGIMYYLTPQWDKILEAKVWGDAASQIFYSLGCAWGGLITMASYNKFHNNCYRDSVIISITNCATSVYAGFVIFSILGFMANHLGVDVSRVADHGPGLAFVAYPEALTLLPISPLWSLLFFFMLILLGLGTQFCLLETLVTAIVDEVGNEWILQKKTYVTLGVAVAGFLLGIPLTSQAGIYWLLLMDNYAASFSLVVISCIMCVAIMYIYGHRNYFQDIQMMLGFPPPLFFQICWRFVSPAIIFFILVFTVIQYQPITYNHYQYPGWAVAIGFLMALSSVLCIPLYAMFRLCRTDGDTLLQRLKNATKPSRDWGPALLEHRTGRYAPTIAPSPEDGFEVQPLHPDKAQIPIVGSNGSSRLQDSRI
The experiment in a line: [14C]glycine uptake assay in JAR cells endogenously expressing GlyT-1 (scintillation proximity). In kind it is cell-based. The conditions noted are these: JAR cells, [14C]glycine 5 μM, 3 hour incubation; read-out: GlyT-1 IC50. The method, boiled down:
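Human choriocarcinoma JAR cells (endogenous GlyT-1) attached overnight, then pre-incubated 10 min at room temperature with compound in pH 7.4 Hepes uptake buffer containing 5 mM alanine and 0.75% DMSO. Uptake of 5 μM [14C]glycine over 3 h at 37 °C read by scintillation proximity; IC50 from four-parameter fit of nine-point curves.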
In general terms: Scintillation proximity formats need no separation of bound from free tracer.
Consider `CCS(=O)(=O)N1CCN(C2(CNC(=O)c3c(F)cc(Cl)cc3Cl)CCC(F)(F)CC2)CC1` [compound 210, 2,4-Dichloro-N-((1-(4-(ethylsulfonyl)piperazin-1-yl)-4,4-difluorocyclohexyl)methyl)-6-fluorobenzamide Hydrochloride], for which the IC50 amounted to 72 nM. Take `CCCS(=O)(=O)N1CCN(C2(CNC(=O)c3cc(Cl)ccc3Cl)CCC(F)(F)CC2)CC1` [compound 243, 2,5-Dichloro-N-((4,4-difluoro-1-(4-(propylsulfonyl)piperazin-1-yl)cyclohexyl)methyl) benzamide Hydrochloride]: the IC50 was determined as 57 nM. With `O=C(NCC1(N2CCN(S(=O)(=O)N3CCC3)CC2)CCC(F)(F)CC1)c1ccc(C(F)(F)F)cc1Cl` [compound 271, N-((1-(4-(azetidin-1-ylsulfonyl)piperazin-1-yl)-4,4difluorocyclohexyl)methyl)-2-chloro-4-(trifluoromethyl)benzamide Hydrochloride] the figure was 350 nM. On to `CCCS(=O)(=O)N1CCN(C2(CNC(=O)c3ccccc3OC)CCCCC2)CC1` [compound 40, 2-Methoxy-N-((1-(4-(propylsulfonyl)piperazin-1-yl)cyclohexyl)methyl) benzamide Hydrochloride], for which the IC50 was 629 nM. Consider `CCCS(=O)(=O)N1CCN(C2(CNC(=O)c3c(C)cccc3C)CCC(F)(F)CC2)CC1` [compound 146, N-((4,4-Difluoro-1-(4-(propylsulfonyl)piperazin-1-yl)cyclohexyl)methyl)-2,6-dimethylbenzamide Hydrochloride], for which the IC50 was 30 nM. For `Cn1cnc(S(=O)(=O)N2CCN(C3(CNC(=O)c4ccc(Cl)cc4F)CCC(F)(F)CC3)CC2)c1` [compound 165, 4-Chloro-N-((4,4-difluoro-1-(4-(1-methyl-1H-imidazol-4-ylsulfonyl)piperazin-1-yl)cyclohexyl)methyl)-2-fluorobenzamide Hydrochloride], the IC50 came to 29 nM.

Regarding `Cc1ccc(C(=O)NCC2(N3CCN(S(=O)(=O)c4cn(C)nn4)CC3)CCC(F)(F)CC2)c(Cl)c1F` [compound 242, 2-Chloro-N-((4,4-difluoro-1-(4-(1-methyl-1H-1,2,3-triazol-4-ylsulfonyl)piperazin-1-yl)cyclohexyl)methyl)-3-fluoro-4-methylbenzamide Hydrochloride], the concentration for half-maximal inhibition (IC50) turned out to be 1 nM.

Regarding `CCS(=O)(=O)N1CCN(C2(CNC(=O)c3c(Cl)cc(C(F)(F)F)cc3C(F)(F)F)CCC(F)(F)CC2)CC1` [compound 206, 2-Chloro-N-((1-(4-(ethylsulfonyl)piperazin-1-yl)-4,4-difluorocyclohexyl)methyl)-4,6-bis(trifluoromethyl) benzamide Hydrochloride], the IC50 is 83 nM. Turning to `Cc1cccc(Cl)c1C(=O)NCC1(N2CCN(S(=O)(=O)c3cn(C)cn3)CC2)CCC(F)(F)CC1` [compound 181, 2-Chloro-N-((4,4-difluoro-1-(4-(1-methyl-1H-imidazol-4-ylsulfonyl)piperazin-1-yl)cyclohexyl)methyl)-6-methylbenzamide Hydrochloride], the IC50 is 2 nM.

As for `Cc1cc(Cl)ccc1C(=O)NCC1(N2CCN(S(=O)(=O)c3cn(C)cn3)CC2)CCC(F)(F)CC1` [compound 168, 4-Chloro-N-((4,4-difluoro-1-(4-(1-methyl-1H-imidazol-4-ylsulfonyl)piperazin-1-yl)cyclohexyl)methyl)-2-methylbenzamide Hydrochloride], the IC50 is 15 nM. As for `CCCS(=O)(=O)N1CCN(C2(CNC(=O)c3ccc(C(C)C)cc3)CCCCC2)CC1` [compound 33, 4-Isopropyl-N-((1-(4-(propylsulfonyl)piperazin-1-yl)cyclohexyl)methyl) benzamide Hydrochloride], the IC50 came to 488 nM. As for `CCCS(=O)(=O)N1CCN(C2(CNC(=O)c3c(F)cccc3F)CCC3(CC3)CC2)CC1` [compound 198, 2,6-Difluoro-N-((6-(4-(propylsulfonyl)piperazin-1-yl)spiro[2.5]octan-6-yl)methyl)benzamide Hydrochloride], the IC50 was 162 nM.

The values are drawn from patent US9045445B2, “Glycine transporter-1 inhibitors, methods of making them, and uses thereof” (Albany Molecular Research, Inc., priority 2010, dated 2015).
